“Also recorded” adds a separate entry of the source.
Tested on: lung alveoli of mice damaged by toxic tobacco smoke exposure
Assay: Mouse model of intoxication by chronic inhalation of tobacco smoke, L-NIL in drinking water
Format: in vivo
Experimental: The regeneration and healing of the lung alveoli by L-NIL is shown in a mouse model of intoxication by chronic inhalation of tobacco smoke. In this model, mice are exposed to a stream of tobacco smoke in a concentration of 140 mg/m^3 for 6 h per day, 5 days a week over a period of up to 8 month.
The structural and functional pulmonary changes due to toxic smoke exposure were quantified with techniques suitable for this purpose. To assess the degree of alveolar damage, the mean linear intercept, alveolar septal wall thickness and the air space volume was quantified.
Parameters for the extent of vascular remodeling comprise the measurement of vascular wall thickness, staining for alpha-smooth muscle actin and von-Willebrand factor as well as the mean cross-sectional area of the vessels.
Functional measurements include the quantification of the lung function in spontaneously breathing as well as artificially ventilated mice with respect to airway resistance, lung compliance and volume flow. To evaluate functional changes of the vessels, lungs are investigated in an isolated perfused and ventilated experimental set-up, and pulmonary vascular resistance and reactivity are measured. The vascular reactivity is determined by quantifying the extent of vasoconstriction after addition of phenylephrine and can be deduced from dose/effect curves.
In a second experiment, L-NIL was administered orally via drinking water in a concentration of 600 μg/ml for a period for 3 months to treat mice with alveolar damage/destruction as a result of 8 months of toxic smoke exposure.

[1] = curative: oral L-NIL in drinking water 600 μg/ml for 3 months after 8 months of toxic smoke exposure

Structure (SMILES): [H]/N=C(/C)NCCCC[C@H](N)C(=O)O [L-NIL, N^6-(1-iminoethyl)-L-lysine]
- Proliferation, PCNA-positive cells in lung sections (FIGS. 5A to 5D) (L-NIL for 3 month after lung exposure to toxic smoke for 8 months): induction of proliferation
- Elastic fibers network, elastin-stained lungs (FIGS. 3A to 3D) (L-NIL treatment after destruction by toxic tobacco smoke exposure): regeneration of the elastic fibers network
- Total number of alveoli assessed by quantitative stereology (FIG. 2) (L-NIL treatment after toxic tobacco smoke exposure): regeneration of alveoli
- Lung function [1]: lung function improvement
- Regeneration of alveolar lung structure [1]: regeneration of the damaged or destroyed lung alveoli; also recorded: complete regeneration of the alveolar lung structure
- Protection against alveolar damage/destruction (alveolar morphometry and lung functional measurements) (preventive: oral L-NIL in drinking water 600 μg/ml in parallel to smoke exposure over 8 months): complete protection against alveolar damage/destruction

Reference: patent publication US20130123364A1 (priority 2011, published 2013)
